Values quoted from earlier work in patent publication US20060150828A1, “Dried infant cereal compositions” (Beech-Nut Nutrition Corporation, priority 2005, published 2006).

Conditions: storage at 37° C., precooked whole wheat flour containing the iron salt

Substance | pentane formation (fat oxidation)
ferrous gluconate | rapidly generated pentane
ferrous sulfate | rapidly generated pentane
